# Measured values as given in patent US10016418B2, “Compounds useful as modulators of TRPM8” (Senomyx, Inc., priority 2010, dated 2018).
# Columns and labels:
# hTRPM8 = target: T1, hTRPM8 (Homo sapiens, UniProt Q7Z2W7); assay: hTRPM8 agonist assay in a mammalian cell line stably expressing hTRPM8; format: cell-based; conditions: for EC50 WS-3 Ratio: EC50 ratio to WS-3
# T1 construct: expressed in transfected cells
# Description: A mammalian cell line derivative which stably expresses hTRPM8 was used in biological assays in association with testing the present compounds with cool-tasting or -feeling properties (Servant et al. US 2007/0259354 A1 and references cited therein). Typical compound concentrations tested were 100 μM, 50 μM, 10 μM, 1 μM, and 0.5 μM. The present compounds have shown strong activity as agonists of hTRPM8. Assay results for compounds are illustrated in Table 1 below. Specifically, the Examples listed in Table 1, i.e., Compounds A1 to Compounds U10 are the specific compounds, i.e., Examples, as described above.
# [1] = Cool Line Scale Test (sensory panel, 15 point line scale, WS-3 reference); format: in vivo, human
# Description: All samples made with Low Sodium Buffer (LSB) pH ˜7.1 and contain 0.1% ethanol.
# Compounds are rated on a 15 point line scale where 45 μM WS-3 (N-Ethyl-p-menthane-3-carboxamide) is ranked as a 5 in cool intensity. In most cases our compounds are tested to determine at what concentration the cooling intensity is equivalent to 45 μM WS-3. In each test, the panelist is presented with a 0 μM control sample, a 45 μM WS-3 control sample and the experimental compound sample and asked to rate the cooling intensity of each sample. Panelists are also asked to rate bitterness. In the table below there was no significant bitterness detected unless otherwise noted. Also, in the table below, n represents the number of tests completed for a given experiment (#panelists x #repetitions).
# All samples were prepared with Low Sodium Buffer (LSB) pH ˜7.1 and contain 0.1% ethanol
# [2] = Table 7, scaffold T7, Ar phenyl vs thienyl
# [3] = Table 1, cell line stably expressing hTRPM8
# T1 sequence (Q7Z2W7 whole entry): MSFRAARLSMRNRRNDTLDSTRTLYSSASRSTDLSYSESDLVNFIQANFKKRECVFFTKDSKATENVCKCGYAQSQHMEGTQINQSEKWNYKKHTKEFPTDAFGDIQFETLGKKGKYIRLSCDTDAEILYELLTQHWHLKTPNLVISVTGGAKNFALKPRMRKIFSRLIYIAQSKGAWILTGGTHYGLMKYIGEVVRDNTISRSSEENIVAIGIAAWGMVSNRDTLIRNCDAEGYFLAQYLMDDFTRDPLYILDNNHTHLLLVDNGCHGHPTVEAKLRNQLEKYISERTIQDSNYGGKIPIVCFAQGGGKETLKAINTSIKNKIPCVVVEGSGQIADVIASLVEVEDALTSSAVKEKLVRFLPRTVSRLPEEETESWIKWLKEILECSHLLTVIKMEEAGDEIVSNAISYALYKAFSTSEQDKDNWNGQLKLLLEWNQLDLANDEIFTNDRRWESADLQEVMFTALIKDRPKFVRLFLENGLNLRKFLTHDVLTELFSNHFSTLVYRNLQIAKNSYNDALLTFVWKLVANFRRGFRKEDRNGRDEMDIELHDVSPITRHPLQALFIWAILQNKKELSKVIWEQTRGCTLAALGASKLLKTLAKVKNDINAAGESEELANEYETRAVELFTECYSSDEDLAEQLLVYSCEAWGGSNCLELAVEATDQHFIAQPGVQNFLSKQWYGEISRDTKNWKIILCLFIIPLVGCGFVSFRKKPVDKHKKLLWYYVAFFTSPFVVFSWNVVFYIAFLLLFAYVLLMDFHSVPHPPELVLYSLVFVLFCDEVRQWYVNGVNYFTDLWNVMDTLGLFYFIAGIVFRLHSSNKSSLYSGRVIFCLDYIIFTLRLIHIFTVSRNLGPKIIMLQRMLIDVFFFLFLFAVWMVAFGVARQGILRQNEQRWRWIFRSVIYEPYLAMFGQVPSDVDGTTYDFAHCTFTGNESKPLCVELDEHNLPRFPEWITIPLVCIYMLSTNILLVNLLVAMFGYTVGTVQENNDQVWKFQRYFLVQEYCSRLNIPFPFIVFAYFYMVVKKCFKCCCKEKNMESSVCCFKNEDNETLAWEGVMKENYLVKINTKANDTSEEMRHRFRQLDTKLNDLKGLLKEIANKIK
structure (smiles),measurement,setting,value
"O=C(COc1ccc(Br)cc1)N(Cc1ccccc1)c1ccccn1 [drawing 234: 4-Br, 2-Pyridyl, Phenyl, reference compound]",EC50,hTRPM8; [2],15600 nM
"O=C(COc1ccc(Cl)cc1)N(Cc1cccs1)c1ccccn1 [drawing 234: 4-Cl, 2-Pyridyl, Thienyl]",EC50,hTRPM8; [2],2320 nM
"Cc1ccc(OCC(=O)N(Cc2ccccc2)c2ccccn2)cc1 [drawing 234: 4-Me, 2-Pyridyl, Phenyl, reference compound]",EC50,hTRPM8; [2],4720 nM
"Cc1ccc(OCC(=O)N(C)Cc2ccccc2)cc1 [drawing 234: 4-Me, Methyl, Phenyl, reference compound]",EC50,hTRPM8; [2],> 100000 nM
CCN(Cc1cccs1)C(=O)/C=C/c1ccc2c(c1)OCO2,EC50,"hTRPM8; Table 8, scaffold T8",> 1 nM
"CCN(Cc1cccs1)C(=O)COc1ccc(C)cc1 [Example U1, N-ethyl-N-(thiophen-2-ylmethyl)-2-(p-tolyloxy)acetamide]",Sensory Results: cooling compared with 0 μM WS-3,[1]; compound at 5 μM,Panelists found 5 μM Compound U1 was significantly more cooling
same,EC50 WS-3 Ratio,hTRPM8; Table 1,577
same,EC50,hTRPM8; [3],7.7 nM
"CCN(Cc1cccs1)C(=O)COc1ccc(C)cc1 [drawing 234: 4-Me, Ethyl, Thienyl]",EC50,hTRPM8; [2],6.9 nM
"O=C(COc1ccc2c(c1)CCC2)N(Cc1cccs1)c1cc[nH]n1 [Example A1, 2-(2,3-dihydro-1H-inden-5-yloxy)-N-(1H-pyrazol-3-yl)-N-(thiophen-2-ylmethyl)acetamide]",EC50 WS-3 Ratio,hTRPM8; Table 1,782471
same,EC50,hTRPM8; [3],0.009 nM
"O=C(COc1ccc(Br)cc1)N(Cc1cccs1)c1ccccn1 [drawing 234: 4-Br, 2-Pyridyl, Thienyl]",EC50,hTRPM8; [2],2270 nM
"CCN(Cc1ccccc1)C(=O)COc1ccccc1 [drawing 234: H, Ethyl, Phenyl, reference compound]",EC50,hTRPM8; [2],9210 nM
"CCN(Cc1cccs1)C(=O)COc1ccccc1 [drawing 234: H, Ethyl, Thienyl]",EC50,hTRPM8; [2],1450 nM
"O=C(COc1ccc2c(c1)CCC2)N(Cc1cccs1)c1cn[nH]c1 [Example C1, 2-(2,3-dihydro-1H-inden-5-yloxy)-N-(1H-pyrazol-4-yl)-N-(thiophen-2-ylmethyl)acetamide]",EC50 WS-3 Ratio,hTRPM8; Table 1,502141
same,EC50,hTRPM8; [3],0.017 nM
"Cc1c[nH]nc1N(Cc1cccs1)C(=O)COc1ccc2c(c1)CCC2 [Example B1, 2-(2,3-dihydro-1H-inden-5-yloxy)-N-(4-methyl-1H-pyrazol-3-yl)-N-(thiophen-2-ylmethyl)acetamide]",Sensory Results: cooling compared with 0 μM WS-3,[1]; compound at 5 μM,Panelists found 5 μM Compound B2 was significantly more cooling
same,EC50 WS-3 Ratio,hTRPM8; Table 1,1000000
same,EC50,hTRPM8; [3],0.001 nM
"Cc1ccc(OCC(=O)N(Cc2cccs2)c2ccn[nH]2)cc1 [Example F1, N-(1H-pyrazol-5-yl)-N-(thiophen-2-ylmethyl)-2-(p-tolyloxy)acetamide]",Average Cooling,"[1]; Table 4, 3 μM in LSB pH ~7.1, 0.1% ethanol, n = 28",5.1
same,Sensory Results: cooling compared with 0 μM WS-3,[1]; compound at 3 μM,Panelists found 3 μM Compound F1 was significantly more cooling
same,Sensory Results: cooling compared with 45 μM WS-3,[1]; compound at 3 μM,not significantly different in cooling
same,EC50 WS-3 Ratio,hTRPM8; Table 1,21178
same,EC50,hTRPM8; [3],0.205 nM
"CCN(Cc1ccccc1)C(=O)COc1ccc(C)cc1 [drawing 234: 4-Me, Ethyl, Phenyl, reference compound]",EC50,hTRPM8; [2],776 nM
"Cc1ccc(OCC(=O)N(Cc2cccs2)c2ccccn2)cc1 [drawing 234: 4-Me, 2-Pyridyl, Thienyl]",EC50,hTRPM8; [2],505 nM
"CCNC(=O)C1CC(C)CCC1C(C)C (centres unmarked) [WS-3, N-Ethyl-p-menthane-3-carboxamide, reference compound]",Average Cooling,"[1]; Table 2, 45 μM WS-3 control, LSB pH ~7.1, 0.1% ethanol, n = 30",3.8
same,Average Cooling,"[1]; Table 4, 45 μM WS-3 control, n = 28",5.2
"Cc1ccc(OCC(=O)N(C)Cc2cccs2)cc1 [drawing 234: 4-Me, Methyl, Thienyl]",EC50,hTRPM8; [2],369 nM
